According to patent US20230190717A1, “P38 GAMMA INHIBITORS AND METHOD OF USE THEREOF” (City of Hope, priority 2017, published 2023):
Entries after “also recorded” stand apart in the source; their conditions may differ.

Experiments:
p38γ [1] = test: Time-resolved fluorescence energy transfer enzyme kinetic analysis; format: biochemical
p38 γ = molecular target: T1, p38 γ (Homo sapiens, UniProt P53778); test: ADP-Glo in vitro kinase assay, p38γ; format: biochemical; parameters: human recombinant p38 α, β, γ or δ protein (active full-length); purchased SignalChem; host or cells: baculovirus in Sf9 insect cells; conditions: for inhibitory kinase activity against p38γ: PI3K inhibitors at 1 and 10 μM; for IC50: in vitro inhibition assay
T1 sequence (P53778 1-367): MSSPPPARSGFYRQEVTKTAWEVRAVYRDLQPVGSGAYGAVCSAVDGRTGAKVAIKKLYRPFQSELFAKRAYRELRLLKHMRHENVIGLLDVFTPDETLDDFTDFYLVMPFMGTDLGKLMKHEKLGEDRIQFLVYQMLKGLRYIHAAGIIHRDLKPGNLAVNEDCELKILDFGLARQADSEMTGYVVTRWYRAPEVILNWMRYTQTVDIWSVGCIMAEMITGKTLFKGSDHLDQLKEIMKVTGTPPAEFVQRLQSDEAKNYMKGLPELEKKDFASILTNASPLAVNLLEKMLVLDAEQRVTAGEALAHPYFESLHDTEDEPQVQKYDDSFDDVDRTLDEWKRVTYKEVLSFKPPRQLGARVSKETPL
Protocol: All compounds are cell-permeable, reversible and well-characterized. For the biochemical screening, kinase assays in vitro were performed using ADP-Glo kit (Promega). The luminescent ADP-Glo kinase assay measures ADP produced from ATP consumption in the reaction.
Kinase assay in vitro: Kinase enzyme assays in vitro were performed using ADP-Glo kit (Promega, Wis.). The luminescent ADP-Glo kinase assay measures ADP produced from ATP consumption in a kinase enzyme reaction. […] Briefly, in this experiment, human recombinant p38 α, β, γ or δ protein (active full-length) expressed by baculovirus in sf9 insect cells (SignalChem, Vancouver, Canada) was homogenized in wells of white opaque 96-well microplates with the kinase buffer that consisted of 40 mM Tris-HCl (pH 7.5), 20 mM MgCl2, 0.1 mg/mL BSA and 50 μM DTT. […] Next, synthetic peptide substrates ([sequence]) were added to the mixture at final concentration of 0.2 μg/μL, followed by adding ATP at various concentrations. The 50 μL mixture was reacted at room temperature for 60 min. Then, ADP-Glo Reagent was incubated in the mixture at room temperature for 40 min, followed by incubation of Kinase Detection Reagent for another 30 min with minor modification as described in the supplier's instruction. Luminescence was measured at an integration time of 0.5 second using an automated BMG PHERAstar plate reader (BMG Labtech). Each experiment was conducted in duplicate or triplicate. […] IC50 values were determined using CalcuSyn software (Biosoft).
IC50 values were determined using CalcuSyn software (Biosoft) based on the data of Figure a.
IC50 values were determined using CalcuSyn software (Biosoft).
All compounds are cell-permeable, reversible, and well-characterized. For the biochemical screening, kinase assays in vitro were performed using ADP-GLO kit (Promega) following manufactures instructions. […] Briefly, for in vitro assay experiments, human recombinant p38 α, β, γ or δ proteins (active full-length) were from [sequence], and followed the protocol of the company. […] Then, ADP-GLO REAGENT was incubated in the mixture at room temperature for 40 min, followed by incubation of Kinase Detection Reagent for another 30 min. IC50 values were determined using [sequence] software (Biosoft, Cambridge, United Kingdom).

Hut78 cells [2] = test: CellTiterGlo cell viability, Hut78; format: cell-based, human; conditions: for effect on viability of Hut78 cells: varying concentrations, 72 hr; for IC50: Homo sapiens, HuT78, 72 h
Protocol: (§2) Viability assays using trypan blue exclusion and CellTiterGlo Cell Viability Assay: Cell viability was calculated by diluting cell suspensions 1:1 in 0.4% TRYPAN BLUE solution (Sigma, St. Louis, Mo.) and counting the number of viable cells using a TC20™ automated cell counter (Bio-Rad, Irvine, Calif.) that automatically excludes the number of non-viable cells stained with trypan blue per total cells. […] All data points are an average of triplicate experiments.
(§3) Absorbance was monitored at 490 nm using an automated BMG PHERAstar plate reader (BMG Labtech). […] All experiments are repeated in three independent experiments and data represented are the average of triplicate experiments.

[3] = tested on: phosphorylation of Akt at ser473; test: Western blot of Akt Ser473 phosphorylation in Hut78; format: cell-based, human; conditions: Hut78, 4 hr treatment
Protocol: Western blot: Western blots were performed as described previously [5]. Rabbit primary antibodies (Cell Signaling Technology (CST), Danvers, Mass.) were used at the following dilutions: anti-p38α, -p38β, -p38γ, and -p38δ (1:1000), anti-B-tubulin (1:2000), anti-p38 GAPDH 1:1000. […] For detection of p38γ protein level in SS patient samples we used a monoclonal antibody that close to N-terminus of human p38γ MAPK (SAPK3) from Abcam ((ab205926).

Hut78 CTCL cell line = test: Annexin V/PI flow cytometry, Hut78; format: cell-based, human; conditions: Hut78, 200 nM, 24 h
From the text: (§1) Data presented are one experiment in triplicate.

p38γ [4] = test: p38 isoform kinase activity (FIG. 20A); format: biochemical
PI3Kγ = PI3Kγ (Homo sapiens, UniProt P48736); conditions: PI3Kγ isoform; cited from earlier work
HH cells = test: CellTiterGlo cell viability, HH; format: cell-based; conditions: Homo sapiens, 72 h
Protocol: as §2, §3

[5] = tested on: PBMCs isolated from an SS patient; test: Annexin V/PI flow cytometry, SS patient PBMCs; format: cell-based, human; conditions: SS PBMC, 200 nM, 24 h
From the text: as §1

SS patient cells = test: Apoptosis and growth in primary SS patient cells; format: cell-based, human
CTCL cells [6] = test: CTCL cell growth / killing; format: cell-based
[7] = tested on: p38γ substrate DLGH1 at Ser158; test: Western blot of Hut78 cells for phosphorylation of p38γ substrate; format: cell-based, human
Hut78 cells [8] = test: Hut78 cell proliferation / viability; format: cell-based, human
p38γ [9] = test: p38γ mRNA level and protein expression (Western blot); format: cell-based; conditions: Western blot, 24 hr, 500 nM
From the text: qRT-PCR (real-time quantitative reverse transcription PCR): Total RNA was generated using TRIZOL reagent (Life Technologies, Carlsbad, Calif.) followed by double DNase treatment and column purification using Qiagen RNeasy Clean-up (Qiagen, Germantown, Md.). The Invitrogen […] III First-Strand Synthesis System was used for cDNA synthesis and TaqMan 5700 Sequence Detection System (Applied Biosystems, Foster City, Calif.) were used for qRT-PCR. All PCR reactions were run in triplicate. The amplified transcripts were quantified using the comparative CT method as described. cDNA and primers for MAPK11, 12, 13, and 14 and GAPDH (Table 9) were added to SYBR GREEN PCR Master Mix (SYBR Green I Dye, […]® DNA polymerase, dNTPs with dUTP and optimal buffer components; Applied Biosystems) and subjected to PCR amplification (1 cycle at 95° C. for 3 min; 35 cycles at 95° C. for 15 s and 55° C. for 30 s; 1 cycle at 50° C. for 2 min).

[10] = tested on: p38γ substrate DLGH1 at Ser158; test: Immunohistochemistry in F7-treated CTCL xenograft mouse tissue; format: in vivo; conditions: data not shown
p38δ = molecular target: T2, p38δ (Homo sapiens, UniProt O15264); test: p38 isoform kinase activity (FIG. 20A); format: biochemical; parameters: human recombinant p38 α, β, γ or δ protein (active full-length); purchased SignalChem; host or cells: baculovirus in Sf9 insect cells; conditions: p38δ (printed "6")
T2 sequence (O15264 1-365): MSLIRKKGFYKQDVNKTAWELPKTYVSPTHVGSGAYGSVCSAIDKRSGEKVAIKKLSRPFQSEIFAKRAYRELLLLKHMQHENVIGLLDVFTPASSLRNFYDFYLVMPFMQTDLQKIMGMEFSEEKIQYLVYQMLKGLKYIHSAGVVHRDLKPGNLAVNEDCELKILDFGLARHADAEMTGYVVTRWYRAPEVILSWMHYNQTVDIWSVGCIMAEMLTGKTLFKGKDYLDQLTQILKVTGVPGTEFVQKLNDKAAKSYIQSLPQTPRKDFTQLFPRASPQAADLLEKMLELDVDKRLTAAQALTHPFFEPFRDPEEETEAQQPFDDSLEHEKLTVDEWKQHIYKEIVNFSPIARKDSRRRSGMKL

Hut78 xenografts = test: Hut78 xenograft tumor growth in mice; format: in vivo
healthy CD4+ T cells = test: Apoptosis and growth in healthy CD4+ T cells; format: cell-based, human; conditions: FIG. 19E
H9 cells = test: CellTiterGlo cell viability, H9; conditions: Homo sapiens, H9, 72 h
Protocol: as §2, §3

p38γ [11] = test: p38γ inhibition at the concentration used in the RNAi library screen; conditions: 10 uM, data not shown
From the text: Synthetic lethal RNAi screen. We will use a synthetic lethal RNAi screen in the presence of sub-lethal p38γ inhibition to identify critical downstream signaling components in CTCL (FIG. 31). We will transduce control and p38γ inhibitor-treated Hut78 CTCL cells with a pooled retroviral RNAi library that targets genes involved in human cancers. Because loss of p38γ alone causes CTCL cell death, we will titrate the dose and/or length of exposure to the p38γ inhibitor to ensure a sub-lethal effect. The target gene of an shRNA that causes death in cells treated with sub-lethal p38γ inhibitor but not control cells will be identified as synthetic lethal/synergistic. Based on our preliminary data showing synergy between F7 and HDACi, we are expecting to identify HDAC family members in the RNAi screen. We will further narrow down the corresponding HDACi for each HDAC member identified, and study potential synergistic effects to achieve of killing CTCL cells. For example, our preliminary data has shown using an RNAi library plus the p38 inhibitor Ly2228820, we have successfully selected loss of HDAC3 as a synergistically lethal element to p38 pathway inhibition, including α, β, and γ isoforms of p38 by LY2228820 (10 uM) […] We will further test the combination of p38γ inhibition with several HDAC3 inhibitors (e.g., RGFP966) for further mechanistic study in Hut78 cells.

CTCL cells [12] = test: Cell viability, CTCL cells (pirfenidone); format: cell-based; conditions: Homo sapiens, read-out: IC50 CTCL cell growth / cell killing
p38γ [13] = molecular target: T3, p38γ (Mus musculus, UniProt O08911); conditions: requires a high dose; cited from earlier work
T3 construct: host or cells: mice (in vivo)
T3 sequence (O08911 whole entry): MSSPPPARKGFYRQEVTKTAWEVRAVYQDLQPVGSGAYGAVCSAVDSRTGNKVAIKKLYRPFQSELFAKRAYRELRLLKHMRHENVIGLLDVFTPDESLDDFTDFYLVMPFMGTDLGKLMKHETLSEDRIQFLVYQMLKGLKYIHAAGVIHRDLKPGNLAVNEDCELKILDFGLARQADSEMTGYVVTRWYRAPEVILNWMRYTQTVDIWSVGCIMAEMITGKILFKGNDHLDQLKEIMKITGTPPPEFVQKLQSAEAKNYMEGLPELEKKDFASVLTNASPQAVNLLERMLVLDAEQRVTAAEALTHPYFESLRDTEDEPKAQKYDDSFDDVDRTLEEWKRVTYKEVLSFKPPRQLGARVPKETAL

Sequence of PI3Kγ (P48736 whole entry, canonical isoform): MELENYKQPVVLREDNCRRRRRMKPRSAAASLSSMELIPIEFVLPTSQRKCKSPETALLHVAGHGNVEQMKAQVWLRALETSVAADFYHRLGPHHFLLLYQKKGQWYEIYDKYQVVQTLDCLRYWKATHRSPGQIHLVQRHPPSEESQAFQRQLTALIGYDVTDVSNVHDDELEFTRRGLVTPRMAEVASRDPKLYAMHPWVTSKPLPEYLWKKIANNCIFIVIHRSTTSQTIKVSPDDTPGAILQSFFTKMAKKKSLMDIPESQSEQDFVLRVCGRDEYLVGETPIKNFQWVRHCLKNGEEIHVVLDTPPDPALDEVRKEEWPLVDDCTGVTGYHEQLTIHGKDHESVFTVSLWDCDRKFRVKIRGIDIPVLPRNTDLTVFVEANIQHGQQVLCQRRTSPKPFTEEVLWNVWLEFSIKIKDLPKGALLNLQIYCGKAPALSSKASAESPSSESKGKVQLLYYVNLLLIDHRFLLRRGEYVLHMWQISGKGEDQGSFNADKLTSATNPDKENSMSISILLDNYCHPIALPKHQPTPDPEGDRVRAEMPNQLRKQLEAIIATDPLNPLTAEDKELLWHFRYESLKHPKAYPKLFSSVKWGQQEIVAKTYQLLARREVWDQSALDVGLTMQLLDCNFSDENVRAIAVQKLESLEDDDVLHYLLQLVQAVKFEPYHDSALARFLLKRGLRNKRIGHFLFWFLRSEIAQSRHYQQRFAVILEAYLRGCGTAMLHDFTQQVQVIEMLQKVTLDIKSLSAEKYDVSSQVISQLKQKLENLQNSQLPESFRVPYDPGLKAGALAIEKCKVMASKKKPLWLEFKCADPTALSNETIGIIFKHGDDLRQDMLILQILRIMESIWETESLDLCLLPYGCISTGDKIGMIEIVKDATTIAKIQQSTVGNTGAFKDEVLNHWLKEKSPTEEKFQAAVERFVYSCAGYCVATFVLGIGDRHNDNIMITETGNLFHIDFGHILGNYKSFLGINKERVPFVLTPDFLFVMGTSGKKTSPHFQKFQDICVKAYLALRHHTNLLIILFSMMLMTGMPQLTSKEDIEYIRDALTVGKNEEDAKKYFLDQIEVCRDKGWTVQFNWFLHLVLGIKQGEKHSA

Nc1ncnc2c1ncn2[C@@H]1O[C@H](COP(=O)(O)OP(=O)(O)OP(=O)(O)O)[C@@H](O)[C@H]1O [ATP]
Km (p38γ [1]; p38γ, read-out: ATP Km): 3.2 ± 0.4 µM

Cn1c(=O)n(-c2ccc(C(C)(C)C#N)cc2)c2c3cc(-c4cnc5ccccc5c4)ccc3ncc21 [BEZ235, Dactolisib]
inhibitory kinase activity against p38γ (p38 γ): no inhibitory kinase activities | effect on viability of Hut78 cells (Hut78 cells [2]): only modest reduction of cell viability

Cc1nc(NC(=O)N2CCC[C@H]2C(N)=O)sc1-c1csc(C(C)(C)C)n1 [Compound A66]
inhibitory kinase activity against p38γ (p38 γ): no inhibitory kinase activities; also recorded: doesn't inhibit | effect on viability of Hut78 cells (Hut78 cells [2]): no influence | phosphorylation of Akt at ser473 [3]: dose-dependent inhibition

Cc1ccc([N+](=O)[O-])cc1S(=O)(=O)N(C)/N=C/c1cnc2ccc(-c3ccc(F)nc3)cn12 [Compound F7D10]
IC50 (p38 γ): ~3.4 µM | IC50 (Hut78 cells [2]): ~2500 nM

Cc1ccc([N+](=O)[O-])cc1S(=O)(=O)N(C)/N=C/c1cnc2ccc(Br)cn12 [Compound F7]
AnnexV_PI (Hut78 CTCL cell line): 25.5 Percentage | Live cells (Hut78 CTCL cell line): 44.48 Percentage | PI Stained (Hut78 CTCL cell line): 29.53 Percentage | inhibition of kinase activity (p38γ [4]): selective, dose-dependent inhibition | IC50 (PI3Kγ): 76 nM | IC50 (HH cells): 34 nM | AnnexV_PI [5]: 17.8 Percentage | Live cells [5]: 42.797 Percentage | PI Stained [5]: 35.2 Percentage | IC50 (Hut78 cells [2]): 42 nM | inhibition of growth (SS patient cells; FIG. 19E): inhibition of growth | induction of apoptosis (SS patient cells; data not shown): selective induction of apoptosis | killing of CTCL cells (CTCL cells [6]): selectively kills CTCL cells at nanomolar concentrations | effectiveness against CTCL cells (CTCL cells [6]; compared with PI3K-specific inhibitor A66, FIG. 28): more effective against CTCL cells than a PI3K-specific inhibitor | inhibition of CTCL cell growth (CTCL cells [6]; compared with Vorinostat (SAHA)): more potent inhibitor of CTCL cell growth than the FDA-approved HDACi Vorinostat | phosphorylation of p38γ substrate DLGH1 at Ser158 [7]: reduced phosphorylation | cell viability in Hut78 cells (Hut78 cells [8]; FIG. 19B / FIG. 29A): reduced cell viability | inhibition of growth (Hut78 cells [8]; Hut78 CTCL cells, FIG. 19E): inhibition of growth | induction of apoptosis (Hut78 cells [8]; Hut78 CTCL cells, data not shown): selective induction of apoptosis | proliferation of Hut78 cells (Hut78 cells [8]; compared with Pirfenidone, FIG. 7): reduced proliferation of Hut78 cells more effectively than Pirfenidone | protein expression of p38 gamma (p38γ [9]): reduces and eliminates the protein expression | phosphorylation of p38γ substrate DLGH1 at Ser158 [10]: reduced phosphorylation | inhibition of kinase activity (p38δ): selective, dose-dependent inhibition | inhibition of tumor growth (Hut78 xenografts; 2 mg/kg, p=0.015, versus vehicle control): statistically significant dose-dependent inhibition of tumor growth | inhibition of tumor growth (Hut78 xenografts; 10 mg/kg, p=0.025, versus vehicle control): statistically significant dose-dependent inhibition of tumor growth | mechanism of inhibition (p38γ [1]; versus ATP): competitive mechanism | inhibition of growth (healthy CD4+ T cells): but not healthy CD4+ T cells | IC50 (H9 cells): 46 nM

CS(=O)(=O)N1CCN(Cc2cc3nc(-c4cccc5[nH]ncc45)nc(N4CCOCC4)c3s2)CC1 [GDC-0941, Pictilisib]
inhibitory kinase activity against p38γ (p38 γ): no inhibitory kinase activities | effect on viability of Hut78 cells (Hut78 cells [2]): only modest reduction of cell viability

CC(C)(C)Cn1c(N)nc2ccc(-c3[nH]c(C(C)(C)C)nc3-c3ccc(F)cc3)nc21 [LY2228820]
p38γ inhibition (p38γ [11]): caused p38γ inhibition

Cc1ccc(=O)n(-c2ccccc2)c1 [Pirfenidone]
IC50 (p38 γ): > 125 µM | IC50 (HH cells): > 125000 nM | IC50 (Hut78 cells [2]): > 125000 nM | IC50 (H9 cells): > 125000 nM | IC50 (CTCL cells [12]): > 125 µM | p38γ inhibition in mice (p38γ [13]): inhibits p38γ in mice
